According to US8710182B2, “Rapid glycopeptide optimization via neoglycosylation” (Wisconsin Alumni Research Foundation, priority 2006, dated 2014):

Tested on: VRE
Settings: preliminary testing

## 2′-N-acyldecanoyl-glucosyl vancomycin neoglycoside [compound 5]
  activity against VRE: significant activity
